How the values were obtained:
[1] = biological target: T1, Avi-KRAS WT (2-169) GTP/RAF1 RBD-3xFLAG (51-131) (Homo sapiens, UniProt P01116); assay: Raf1-KRAS WT-GTP disruption HTRF assay (Biological Example 3); format: binding; settings: KRAS WT, GTP-loaded
T1 construct: Avi-KRAS WT (2-169)
Procedure: (§1) Biological Example 3: Disrupting RAS-Effector Binding HTRF Assay
(§2) A protein:protein interaction (PPI) Homogeneous Time Resolved Fluorescence (HTRF) assay was used to determine the effectiveness of compounds in disrupting KRAS protein and effector (RAF1) binding.
(§3) The HTRF assay used the following reagents and proteins: (i) 50 nM Avi-KRAS G12D (2-169) GTP/RAF1 RBD-3xFLAG (51-131): (ii) 50 nM Avi-KRAS G12C (2-169) GTP/RAF1 RBD-3xFLAG (51-131): (iii) 50 nM Avi-KRAS G12V (2-169) GTP/RAF1 RBD-3xFLAG (51-131); (iv) 50 nM Avi-KRAS WT (2-169) GTP/RAF1 RBD-3xFLAG (51-131); and (v) 75 nM 3xFLAG-RAF1 RBD (51-131)-Avi. The assay buffer included: 50 mM Tris pH 7.5 (Invitrogen, 15567-027), 100 mM NaCl (Sigma, S5150-IL), 5 mM MgCl2 (Sigma, 63069), 0.1% BSA (Sigma, A7030), 0.01% Tween 20 (Sigma, P7949), 10% DMSO (Cell Signaling, 12611). The bead buffer included: 50 mM Tris pH 7.5 (Invitrogen, 15567-027), 0.01% Tween 20 (Sigma, P7949). An assay volume of 20 μL was used in a 384 well plate-low volume format. Compound titration: 30-0.005 μM, 3x dilution series.
(§4) The HTRF assay employed the following protocol:
(§5) Compounds were dispensed in assay plate (384-well, Grenier Bio-One #784075) using Echo (model 555) with dose response settings: 200 nL final volume, titration from 30 μM as a 10-point dilution series. Proteins and HTRF reagents were mixed and dispensed onto plates, 20 μL per well, and then incubated for 1 h at room temperature, with 700 rpm shaking.
(§6) Plates were analyzed on an Envision plate reader using the following setting: Excitation 320 nm, Bandwidth 75 nm; Emission 615 nm, Bandwidth 85 nm; Gain 100%; Flashes 100; Lag 60 μs. Data was reported as percentage of activity, with DMSO as 100%. Data was plotted and analyzed using Prism 8.
(§7) The biochemical Raf1-KRAS G12D/G12V/G12C/WT-GTP disruption assay IC50 of selected compounds described herein are shown in Table 12.

[2] = biological target: T2, Avi-KRAS G12C (2-169) GTP/RAF1 RBD-3xFLAG (51-131) (Homo sapiens, UniProt P01116, G12C); assay: Raf1-KRAS G12C-GTP disruption HTRF assay (Biological Example 3); format: binding; settings: KRAS G12C, GTP-loaded
T2 construct: Avi-KRAS G12C (2-169)
T2 sequence (P01116 2-169 isoform P01116-2 G12C): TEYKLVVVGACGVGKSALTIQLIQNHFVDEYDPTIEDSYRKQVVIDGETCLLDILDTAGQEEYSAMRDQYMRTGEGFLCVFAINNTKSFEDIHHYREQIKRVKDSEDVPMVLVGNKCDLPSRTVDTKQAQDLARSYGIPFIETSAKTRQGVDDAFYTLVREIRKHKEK
Procedure: as §1, §2, §3, §4, §5, §6, §7

[3] = biological target: T3, Avi-KRAS G12D (2-169) GTP/RAF1 RBD-3xFLAG (51-131) (Homo sapiens, UniProt P01116, G12D); assay: Raf1-KRAS G12D-GTP disruption HTRF assay (Biological Example 3); format: binding; settings: KRAS G12D, GTP-loaded
T3 construct: Avi-KRAS G12D (2-169)
T3 sequence (P01116 2-169 isoform P01116-2 G12D): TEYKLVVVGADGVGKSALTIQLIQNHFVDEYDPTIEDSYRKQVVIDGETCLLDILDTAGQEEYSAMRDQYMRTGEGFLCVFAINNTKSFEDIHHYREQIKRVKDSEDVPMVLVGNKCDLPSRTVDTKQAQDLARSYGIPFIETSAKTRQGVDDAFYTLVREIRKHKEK
Procedure: as §1, §2, §3, §4, §5, §6, §7

SW620 cells (KRAS G12V) = assay: Cell-based pERK HTRF assay in SW620 cell (Biological Example 4)
Summary of the method: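 In SW620 cells grown in RPMI with 10% FBS, a 4 h compound treatment (0.25% DMSO, 9-point curve from 1 μM) preceded lysis. Phospho-ERK levels were then read by time-resolved FRET at 615 nm emission.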

[4] = biological target: T4, Avi-KRAS G12V (2-169) GTP/RAF1 RBD-3xFLAG (51-131) (Homo sapiens, UniProt P01116, G12V); assay: Raf1-KRAS G12V-GTP disruption HTRF assay (Biological Example 3); format: binding; settings: KRAS G12V, GTP-loaded
T4 construct: Avi-KRAS G12V (2-169)
T4 sequence (P01116 2-169 isoform P01116-2 G12V): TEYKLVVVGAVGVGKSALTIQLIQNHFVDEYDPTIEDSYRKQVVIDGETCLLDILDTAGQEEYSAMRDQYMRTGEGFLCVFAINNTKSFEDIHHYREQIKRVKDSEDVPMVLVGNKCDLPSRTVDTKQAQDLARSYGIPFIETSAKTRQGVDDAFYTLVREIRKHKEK
Procedure: as §1, §2, §3, §4, §5, §6, §7

GP2d cells (KRAS G12D) = assay: Cell-based pERK HTRF assay in GP2d cell (Biological Example 2); settings: GP2d (KRAS G12D) cells
Summary of the method: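 Phospho-ERK is measured by HTRF following a 60 min compound exposure at 0.25% DMSO, with a 9-point half-log curve topping at 1 μM or 100 nM.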

[5] = biological target: T5, Avi-KRAS G12V (1-169) GppNHp/RAF1 RBD-3xFLAG (52-151) (Homo sapiens, UniProt P01116, G12V); assay: Raf1-KRAS G12V-GppNHP disruption HTRF assay (Biological Example 1); format: binding; settings: KRAS G12V, GppNHp-loaded; class symbols
T5 construct: Avi-KRAS G12V (1-169)
T5 sequence (P01116 1-169 isoform P01116-2 G12V): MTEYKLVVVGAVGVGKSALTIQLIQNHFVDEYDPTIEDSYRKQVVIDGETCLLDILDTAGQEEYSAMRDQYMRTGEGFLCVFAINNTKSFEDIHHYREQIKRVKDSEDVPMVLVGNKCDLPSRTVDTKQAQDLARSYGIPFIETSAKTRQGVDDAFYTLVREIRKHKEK
Summary of the method: (§8)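 HTRF PPI disruption; buffer 50 mM Tris pH 7.5, 100 mM NaCl, 5 mM MgCl2, 0.1% BSA, 0.01% Tween, 10% DMSO. Protein mix 1 h RT shaking, reagent mix 1 h RT shaking. Data as % activity vs DMSO (100%).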

[6] = biological target: T6, Avi-KRAS G12R (1-169) GppNHp/RAF1 RBD-3xFLAG (52-151) (Homo sapiens, UniProt P01116, G12R); assay: Raf1-KRAS G12R-GppNHP disruption HTRF assay (Biological Example 1); format: binding; settings: KRAS G12R, GppNHp-loaded; class symbols
T6 construct: Avi-KRAS G12R (1-169)
T6 sequence (P01116 1-169 isoform P01116-2 G12R): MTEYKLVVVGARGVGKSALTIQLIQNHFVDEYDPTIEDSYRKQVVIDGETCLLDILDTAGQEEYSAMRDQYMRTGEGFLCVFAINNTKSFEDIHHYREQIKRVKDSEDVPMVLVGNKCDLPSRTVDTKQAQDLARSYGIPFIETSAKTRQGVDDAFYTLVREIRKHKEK
Summary of the method: as §8

[7] = biological target: T7, Avi-KRAS WT (1-169) GppNHp/RAF1 RBD-3xFLAG (52-151) (Homo sapiens, UniProt P01116); assay: Raf1-KRAS WT-GppNHP disruption HTRF assay (Biological Example 1); format: binding; settings: KRAS WT, GppNHp-loaded; class symbols
T7 construct: Avi-KRAS WT (1-169)
T7 sequence (P01116 1-169 isoform P01116-2): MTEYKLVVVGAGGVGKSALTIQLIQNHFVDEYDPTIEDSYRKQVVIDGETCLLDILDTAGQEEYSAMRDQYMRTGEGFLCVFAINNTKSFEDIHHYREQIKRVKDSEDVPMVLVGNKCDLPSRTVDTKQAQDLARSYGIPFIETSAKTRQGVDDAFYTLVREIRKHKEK
Summary of the method: as §8

[8] = biological target: T8, Avi-KRAS G12D (1-169) GppNHp/RAF1 RBD-3xFLAG (52-151) (Homo sapiens, UniProt P01116, G12D); assay: Raf1-KRAS G12D-GppNHP disruption HTRF assay (Biological Example 1); format: binding; settings: KRAS G12D, GppNHp-loaded; class symbols
T8 construct: Avi-KRAS G12D (1-169)
T8 sequence (P01116 1-169 isoform P01116-2 G12D): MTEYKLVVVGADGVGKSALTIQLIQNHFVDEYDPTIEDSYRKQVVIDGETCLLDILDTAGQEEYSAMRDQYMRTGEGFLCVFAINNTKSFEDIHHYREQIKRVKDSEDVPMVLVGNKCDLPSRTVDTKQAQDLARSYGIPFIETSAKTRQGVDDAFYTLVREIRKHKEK
Summary of the method: as §8

[9] = Homo sapiens, SW-620, SW620 (KRAS G12V) cells
[10] = Homo sapiens, SW-620, SW620 (KRAS G12V) cells, pERK HTRF, class symbols

T1 sequence (P01116 2-169 isoform P01116-2): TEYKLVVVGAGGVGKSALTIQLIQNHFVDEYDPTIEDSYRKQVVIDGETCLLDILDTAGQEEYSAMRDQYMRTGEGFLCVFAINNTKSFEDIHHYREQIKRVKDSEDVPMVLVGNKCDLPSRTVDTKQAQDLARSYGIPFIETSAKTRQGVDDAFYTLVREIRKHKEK

Compound | IC50 [1] [nM] | IC50 [2] [nM] | IC50 [3] [nM] | IC50 (SW620 cells (KRAS G12V); [9]) [nM] | IC50 [4] [nM] | IC50 (GP2d cells (KRAS G12D); GP2d) [nM] | IC50 [5] [nM] | IC50 [6] [nM] | IC50 (SW620 cells (KRAS G12V); [10]) [nM] | IC50 [7] [nM] | IC50 (GP2d cells (KRAS G12D); GP2d, pERK HTRF, class symbols) [nM] | IC50 [8] [nM] | IC50 (SW620 cells (KRAS G12V); SW620 (KRAS G12V) cells, pERK HTRF, class symbols) [nM] | IC50 (GP2d cells (KRAS G12D); pERK HTRF, class symbols) [nM]
CCN(c1nc(OC[C@@]23CCCN2C[C@H](F)C3)nc2c(F)c(-c3ccc(F)c4sc(N)c(C#N)c34)c(C(F)(F)F)cc12)[C@H]1CC[C@H](C(=O)N(C)C)C1 (atropisomer, axis not shown) [Compound 660] | 100 to 1000 | 1000 to 10000 | 100 to 1000 | < 100 | 1000 to 10000 | < 100 | – | – | – | – | – | – | – | –
CCN(c1nc(OC[C@@]23CCCN2C[C@H](F)C3)nc2c(F)c(-c3ccc(F)c4sc(N)c(C#N)c34)c(C(F)(F)F)cc12)[C@H]1CC[C@@H](C(=O)N(C)C)C1 (atropisomer, axis not shown) [Compound 661] | 100 to 1000 | 1000 to 10000 | 100 to 1000 | < 100 | 1000 to 10000 | < 100 | – | – | – | – | – | – | – | –
CCN(c1nc(OC[C@@]23CCCN2C[C@H](F)C3)nc2c(F)c(-c3ccc(F)c4sc(N)c(C#N)c34)c(C(F)(F)F)cc12)[C@H]1C[C@@H]2CCCC(=O)N2C1 (atropisomer, axis not shown) [Compound 663] | 1000 to 10000 | 1000 to 10000 | 100 to 1000 | < 100 | 1000 to 10000 | < 100 | – | – | – | – | – | – | – | –
CCN(c1nc(OC[C@@]23CCCN2C[C@H](F)C3)nc2c(F)c(-c3ccc(F)c4sc(N)c(C#N)c34)c(C(F)(F)F)cc12)[C@H]1C[C@@H]2CCN(C)C(=O)N2C1 (atropisomer, axis not shown) [Compound 667] | 100 to 1000 | 100 to 1000 | 100 to 1000 | < 100 | 100 to 1000 | < 100 | – | – | – | – | – | – | – | –
CCN(c1nc(OC[C@@]23CCCN2C[C@H](F)C3)nc2c(F)c(-c3ccc(F)c4sc(N)c(C#N)c34)c(C(F)(F)F)cc12)[C@H]1CCN(C(=O)O[C@@H]2CCCOC2)C1 (atropisomer, axis not shown) [Compound 796] | 100 to 1000 | 100 to 1000 | 100 to 1000 | < 100 | 100 to 1000 | < 100 | – | – | – | – | – | – | – | –
CCN(c1nc(OC[C@@]23CCCN2C[C@H](F)C3)nc2c(F)c(-c3ccc(F)c4sc(N)c(C#N)c34)c(C(F)(F)F)cc12)[C@H]1CCN(C(=O)O[C@H]2CO[C@H]3OCC[C@H]32)C1 (atropisomer, axis not shown) [Compound 816] | 100 to 1000 | ≤ 100 | 100 to 1000 | < 100 | 100 to 1000 | < 100 | – | – | – | – | – | – | – | –
CCN(c1nc(OC[C@@]23CCCN2C[C@H](F)C3)nc2c(F)c(-c3ccc(F)c4sc(N)c(C#N)c34)c(C(F)(F)F)cc12)[C@H]1C[C@H](C(=O)N(C)C)C1 (atropisomer, axis not shown) [Compound 950] | 100 to 1000 | 100 to 1000 | 100 to 1000 | – | 100 to 1000 | – | – | – | – | – | – | – | – | –
CCN(c1nc(OC[C@@]23CCCN2C[C@H](F)C3)nc2c(F)c(-c3ccc(F)c4sc(N)c(C#N)c34)c(C(F)(F)F)cc12)[C@H]1CCN(C(=O)OC2CC(F)C2)C1 (stereo partly shown) [Compound 776] | – | – | – | – | – | – | 100 to 1000 | < 100 | < 100 | 100 to 1000 | < 100 | < 100 | – | –
CCN(c1nc(OC[C@@]23CCCN2C[C@H](F)C3)nc2c(F)c(-c3ccc(F)c4sc(N)c(C#N)c34)c(C(F)(F)F)cc12)[C@H]1CCN(C(=O)C2CC(OC)C2)C1 (stereo partly shown) [Compound 777] | – | – | – | – | – | – | 100 to 1000 | < 100 | < 100 | 100 to 1000 | < 100 | < 100 | – | –
CCN(c1nc(OC[C@@]23CCCN2C[C@H](F)C3)nc2c(F)c(-c3ccc(F)c4sc(N)c(C#N)c34)c(C(F)(F)F)cc12)[C@H]1CCN(C(=O)OC2CC(F)C2)C1 (stereo partly shown) [Compound 787] | – | – | – | – | – | – | < 100 | < 100 | – | < 100 | – | < 100 | < 100 | < 100
CCN(c1nc(OC[C@@]23CCCN2C[C@H](F)C3)nc2c(F)c(-c3ccc(F)c4sc(N)c(C#N)c34)c(C(F)(F)F)cc12)[C@H]1CCN(C(=O)OC2CC(OC)C2)C1 (stereo partly shown) [Compound 791] | – | – | – | – | – | – | < 100 | < 100 | < 100 | < 100 | < 100 | < 100 | – | –
CCN(c1nc(OCC23CCCN2CC(F)C3)nc2c(F)c(-c3ccc(F)c4sc(N)c(C#N)c34)c(C(F)(F)F)cc12)C1CCN(C(=O)c2oncc2C)C1 (stereo not shown) [Compound 804] | – | – | – | – | – | – | < 100 | < 100 | < 100 | < 100 | < 100 | < 100 | – | –

Reference: US20260042764A1, “COMPOSITIONS AND METHODS FOR INHIBITION OF KRAS” (TheRas, Inc., priority 2022, published 2026)
